experiment: Growth inhibition of human NCI60 cells by sulforhodamine B assay; type: functional

| Compound | GI50 [nM] |
| --- | --- |
| COc1cc(NC(=O)c2cc(OC)c3ccn(C)c3c2)cc2c1O[C@]1(C)CC[C@@H](O)C(C)(C)[C@H]1C2 | 6600 |
| COc1cc(NC(=O)c2cc(O)c(C/C=C(\C)CCC=C(C)C)c(O)c2)cc2c1O[C@]1(C)CC[C@@H](O)C(C)(C)[C@H]1C2 | 1100 |
| COc1cc(C(=O)Nc2cc(OC)c3ccn(C)c3c2)cc2c1O[C@]1(C)CC[C@@H](O)C(C)(C)[C@H]1C2 | 660 |
| COc1cc(C(=O)Nc2cc(O)c(C/C=C(\C)CCC=C(C)C)c(O)c2)cc2c1O[C@]1(C)CC[C@@H](O)C(C)(C)[C@H]1C2 | 210 |
| COc1cc(/C=C/c2cc(O)c(C/C=C(\C)CCC=C(C)C)c(O)c2)cc2c1O[C@]1(C)CC[C@@H](O)C(C)(C)[C@H]1C2 [3-DEOXYSCHWEINFURTHIN B] | 870 |
| CC(C)=CCC/C(C)=C/Cc1c(O)cc(/C=C/c2cc(O)c3c(c2)C[C@@H]2C(C)(C)[C@H](O)[C@H](O)C[C@@]2(C)O3)cc1O [SCHWEINFURTHIN A] | 360 |

Source: ChEMBL document CHEMBL4043210, “Synthesis of amide isosteres of schweinfurthin-based stilbenes” (2017)
